This is an account of results in US8883763B2 (Universite Joseph Fourier, priority 2010, dated 2014).

Assay [1] concerns HeLa cells. Briefly: Phase contrast video microscopy of HeLa cells (mitosis duration, blebbing). It is filed as cell-based, human. To be noted: 0.5 μM. Here is the method:
The cells were filmed over 48 hours (image acquisition every 5 minutes) with a Neofluar 40× objective (Zeiss).
The values of FIG. 10A are averages±SEM of two experiments in which 50 mitotic cells were monitored.
For z-series video microscopy, HeLa cells were cultured in glass-bottomed dishes (Iwaki, Milian # BY-3910035). The system comprises: an AXIOVERT 200M inverted microscope (Zeiss®), a thermostated incubation chamber which maintains a temperature of 37° C. and a constant CO2 level of 5%, a motorized platform and a CoolSNAP HQ camera (Roper Scientifics®) coupled with the Metamorph acquisition and analysis system (Universal Imaging™ Corporation). The studies were carried out with ×20 or ×40 objectives (Neofluar Zeiss).
Initially, the acquisition fields were chosen and stored in the memory, then the acquisition parameters were defined, such as the duration of the experiment (48 hours), the interval between the image captures (5 minutes), or the number of sections at depth z (9 sections). At the end of 48 hours of recording, the acquisition batteries were reconstituted with the image at z having the same focus, using the Metamorph software.

Assay [2] concerns human tumours (HTB-177: pulmonary carcinoma) xenografted onto nude mice. Briefly: HTB-177 tumour xenograft in nude mice, necrosis and histology. The class given is in vivo. The method, then: All the animal experiments were carried out according to the recommendations of the local ethics commmittee. Nude mice (NCr-nu/nu females (Harlan Laboratories), were housed in a room with filtered air at 22° C., alternating 12 hours of day and 12 hours of night.
HTB177 cells (1×10^6) were implanted sub-cutaneously in the flanks of the mice. The tumour growth was monitored twice weekly by measuring the size of the tumours with a slide caliper, thus making it possible to estimate the volume of the tumour, calculated in mm^3 according to the following formula: length×width×height×π/6.
Treatment commenced when the tumours reached a size of approximately 250 mm^3. The weight of the animal, the volume of the tumour and the extension of the necroses were measured twice weekly.
The animals were sacrificed when the tumour reached 2000 mm^3 or sooner if a clinical sign of suffering, defined by the ethics committee, was observed.
The mice received compound 6 per os in doses and at intervals described in the captions to the figures. The control mice received the vehicle alone (identical volume of beta-cyclodextrin at 60 mg/ml))
After euthanasia of the animals, the tumours were removed, cut sagittally along the median line, frozen rapidly in nitrogen liquid and stored at −80° C. […]

Assay [3] relates to HeLa cells. Briefly: Indirect immunofluorescence: effect on HeLa cells (mitotic arrest, microtubule depolymerization). The class given is cell-based, human. Also noted: key to Effect on Hela at 25 μM / Effect on Hela at 100 μM / Effect on Hela at 50 and 100 μM / Effect on Hela at 50 μM: —: −: no activity on the cells at 25 μM (if there is an effect at high concentrations, this is specified in the table).; *: weak activity (MA and/or slight depolymerization of the MTs and/or slight inhibition of proliferation),; **: average activity (MA and/or moderate depolymerization of the MTs and/or moderate inhibition of proliferation),; ***: strong activity (MA and/or pronounced depolymerization of the MTs and/or pronounced inhibition of proliferation),; ****: very strong activity (MA and/or very pronounced depolymerization of the MTs and/or strong inhibition of proliferation). In a few lines:
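HeLa cells exposed 24 h to compound (100 μM to 50 nM; primary series 1–10 μM), DMSO controls. PFA/glutaraldehyde-fixed cells immunostained for α-tubulin, actin (phalloidin) and DNA (Hoechst); fluorescence microscopy scored phenotypes and mitotic index, with mitotic index and/or MT depolymerization evaluated at 25 μM.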

As for `COc1ccc(-c2[nH]c(=O)c3cc(OC)ccc3c2[N+](=O)[O-])cc1` [Compound 6, 7-methoxy-3-(4-methoxyphenyl)-4-nitroisoquinoline-1(2H)-one], the “membrane phenotype of HeLa cells (interphase and mitosis), phase contrast” value in the assay with HeLa cells [1] (3 hours) is “cortical blebbings”. Besides, the “mitotic arrest of HeLa cells, phase contrast over 24 hours” value in the assay on HeLa cells [1] (24 hours) is listed as “accumulation of rounded HeLa cells”. In addition, in the assay with HeLa cells [1] (HeLa cells in mitosis), the “mitotic cells remaining rounded” value was found to be 20% and the “mitotic cells showing intense blebbing” value came to 80%. In addition, in the assay on HeLa cells [1] (1 hour under control conditions), the “duration of the mitosis of HeLa cells” value is 22 h. Also, the “tumour necrosis (macroscopic)” value in assay [2] (40 mg/kg twice weekly per os, after one cycle of administration (day 7)) is “central necrosis”. Moreover, the “necrosis on H&E-stained tumour sections” value in assay [2] (48 hours after administration of 40 mg/kg) is “extensive areas of necrosis”. Moreover, in the assay with HeLa cells [3] (25 μM, 24 hours, mitotic index and/or depolymerization of the MTs), the “Effect on Hela at 25 μM” value is “****”. Moreover, in the assay with HeLa cells [3] (1 and 10 μM for 24 hours), the “phenotype on microtubules and actin cytoskeleton, HeLa cells in interphase” value was “depolymerization of the microtubules and a reorganization of the actin cytoskeleton”; the “phenotype on microtubules and actin cytoskeleton, HeLa cells in mitosis” value was “depolymerization of the spindle microtubules and actin blebbing at the level of the cortex”.
